Our source for the IC50 values is ChEMBL document CHEMBL3861944 (Medchemcomm, 2016).

The structures appear in SMILES notation.

This assay is described as follows: Antioxidant activity assessed as DPPH free radical scavenging activity incubated for 30 mins in dark. The class given is functional. For orientation: DPPH is a stable violet radical that fades when it is reduced.

For orientation: IC50 means the concentration that inhibits the measured activity by half. As to `O=C1O[C@H]([C@@H](O)CO)C(O)=C1O` [ASCORBIC ACID], the IC50 stood at 79.3 µM.
